The target of one test is recombinant E. coli FtsZ (Escherichia coli (strain K12), UniProt P0A9A6). Kind of test: FtsZ GTPase assay (malachite green). As to conditions: read-out: FtsZ in vitro IC50 μM Ec-FtsZ.
The target of the next test is Sa-FtsZ (Staphylococcus aureus, UniProt P0A031). The test is classed as biochemical. As to conditions: GTPase assay; read-out: FtsZ in vitro IC50 μM Sa-FtsZ.
The subject of test [1] is Escherichia coli (EC, ATCC 8739). The test can be described thus: Microbroth dilution assay. The test is classed as cell-based. As to conditions: ATCC8739. On the procedure:
(§1) Compounds 1-8 were tested for antimicrobial activity against Staphylococcus aureus (SA, ATCC 25923), methicillin-resistant S. aureus (MRSA, ATCC BAA-41), multidrug-resistant S. aureus (MDRSA, ATCC BAA-44), Enterococcus faecium (EF, ATCC 49032), vancomycin-resistant E. Faecium (VRE, ATCC 700221), and Bacillus subtilis (ATCC 49343) using a modified disk diffusion assay and microbroth liquid dilution assays. For disk diffusion assays, agar plates seeded with suspensions of bacteria were prepared by adding 500 μL of a 24 h culture of bacteria to 100 mL of autoclaved Mueller Hinton II agar and cooled to 55° C. Seeded liquid agar (10 mL) was transferred immediately to square Petri dishes and allowed to cool for 1 h. Control drugs used for each microorganism included kanamycin (50 μg) for S. aureus, and nitrofurantoin (25 μg) for MRSA. Following incubation at 37° C. for 18 h, zones of inhibition were measured. MICso values for compounds 1 and 4-8 were determined using a microbroth dilution assay outlined in the Clinical and Laboratory Standards Institute methods for susceptibility tests for bacteria that grow aerobically. Briefly, single bacterial colonies were used to inoculate 4 mL of Trypticase Soy broth (BD) for overnight growth and inoculum for each were diluted to 5×10^5 CFU/mL using the 0.5 McFarland standard. In a 96 well plate (Costar, round bottom), control antibiotics (oxacillin for SA and MRSA, vancomycin for EF and VRE, chloramphenicol for B. subtilis) or natural product inhibitors were added to Mueller Hinton II broth (for S. aureus, MRSA, and B. subtilis) or 10% brain heart infusion broth (for E. faecium and VRE) in the first column of the well plates, and serially diluted across the plate, reserving wells for a positive growth control (no treatment). 10 μL of diluted bacteria were added to all wells with the exception of those kept for broth blanks (MHII or brain heart infusion broth only). Plates were incubated at 37° C. overnight and read at absorbance 600 nm on a Molecular Devices plate reader. Growth curves were plotted and ICso values obtained using Kalidagraph software.
(§2) Compounds J23 and J24 were tested for antimicrobial activity against Bacillus subtilis (BS, ATCC 49343), Staphylococcus aureus (SA, ATCC 25923), methicillin-resistant S. aureus (MRSA, ATCC BAA-41), multidrug-resistant S. aureus (MDRSA, ATCC BAA-44), Escherichia coli (EC, ATCC 8739), envelope-deficient E. coli (envA-EC; permeable (envA-) BL21(DE3)pLysS E. coli [constructed using standard P1 transduction methodology, utilizing a Tn10transposon linked to the envA1 gene]; Wang et al., J. Biol. Chem. 2003, 278(45):44424-44428), a clinical isolate of S. aureus (UAMS-1; clinical osteomyelitis isolate; Olson et al., PLoS Pathogens 2011, 7(2):e1001287, www.plospathogens.org), and a clinical isolate of MRSA (USA300; the strain USA300-0114 is the predominant cause of U.S. community-associated methicillin resistant S. aureus infections). MIC50 values were determined using a microbroth dilution assay as described in Example 2. E. coli was grown in Mueller Hinton II broth.

Test [2] concerns clinical isolate of MRSA (USA300). The test can be described thus: Microbroth dilution assay. The test is classed as cell-based. As to conditions: Staphylococcus aureus. As to the method:
as §1, §2

The subject of test [3] is envelope-deficient E. coli (envA-EC). The test can be described thus: Microbroth dilution assay. The test is classed as cell-based. As to conditions: Escherichia coli, read-out: MIC50 values in μM envA-EC. As to the method:
as §1, §2

For test [4], the system named is methicillin-resistant S. aureus (MRSA, ATCC BAA-41). Kind of test: Microbroth dilution assay. The test is classed as cell-based. As to conditions: Staphylococcus aureus. On the procedure: as §1, §2
Test [5] concerns Staphylococcus aureus (SA, ATCC 25923). Kind of test: Microbroth dilution assay. The test is classed as cell-based. As to conditions: ATCC25923, microbroth dilution. As to the method: as §1, §2
Test [6] relates to multidrug-resistant S. aureus (MDRSA, ATCC BAA-44). The test can be described thus: Microbroth dilution assay. The test is classed as cell-based. As to conditions: Staphylococcus aureus, ATCCBAA44, read-out: MIC50 values in μM MDRSA. As to the method: as §1, §2
For test [7], the system named is clinical isolate of S. aureus (UAMS-1). The test can be described thus: Microbroth dilution assay. The test is classed as cell-based. As to conditions: Staphylococcus aureus. On the procedure:
as §1, §2

Test [8] has as its system Bacillus subtilis (ATCC 49343). The test can be described thus: Microbroth dilution assay. As to conditions: ATCC49343, read-out: MIC50 values in μM BS. The test is classed as cell-based. As to the method:
as §1, §2

This passage reports IC50 and MIC50 results from patent publication US9169182B2, “Chrysophaentin analogs that inhibit FtsZ protein” (priority 2011, dated 2015).

Values after ≈ are worked out from the molar mass of the structure shown.

recombinant E. coli FtsZ, sequence (P0A9A6 whole entry, looked up): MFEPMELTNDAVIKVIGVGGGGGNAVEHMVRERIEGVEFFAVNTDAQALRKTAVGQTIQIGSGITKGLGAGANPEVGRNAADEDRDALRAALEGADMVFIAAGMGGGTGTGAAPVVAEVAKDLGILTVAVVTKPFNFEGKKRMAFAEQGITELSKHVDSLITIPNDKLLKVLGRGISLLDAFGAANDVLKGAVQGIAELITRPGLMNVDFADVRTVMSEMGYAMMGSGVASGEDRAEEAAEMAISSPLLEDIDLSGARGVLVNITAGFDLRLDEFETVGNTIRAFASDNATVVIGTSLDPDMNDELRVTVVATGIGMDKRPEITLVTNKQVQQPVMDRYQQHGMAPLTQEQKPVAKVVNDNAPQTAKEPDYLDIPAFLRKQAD
Procedure for Sa-FtsZ: (§3) Solutions were incubated at room temperature for 5 min, followed by addition of 0.25 mM GTP. At the end of a 20-min incubation period, enzyme activity was quenched by addition of 50 μL Malachite Green solution and the wells read at A^625 on an absorbance plate reader.
Procedure for recombinant E. coli FtsZ: as §3

Take `COc1cc(C/C=C(/Cl)Cc2cc(O)cc(O)c2)c(OC)cc1Cl` [Compound J23, (E)-5-(2-chloro-4-(4-chloro-2,5-dimethoxyphenyl)but-2-enyl)benzene-1,3-diol]: the IC50 on recombinant E. coli FtsZ came to 36 ± 7 µM; on Sa-FtsZ, 44 ± 12 µM. Moreover, the MIC50 in [1] was greater than 270 µM; in test [2], 6 µM (≈ 2.22 µg/mL); in test [3] it was 120 µM (≈ 44.3 µg/mL); in test [4], 12 µM (≈ 4.43 µg/mL); in test [5], 12 µM (≈ 4.43 µg/mL); in test [6] it was 12 µM (≈ 4.43 µg/mL). The MIC50 in [7] worked out at 7.4 µM (≈ 2.73 µg/mL); in [8], 19 µM (≈ 7.02 µg/mL).
For the compound `Oc1cc(O)cc(C/C(Cl)=C\Cc2cc(O)c(Cl)cc2O)c1` [Compound J24, (E)-5-(2-chloro-4-(4-chloro-2,5-dihydroxyphenyl)but-2-enyl)-benzene-1,3-diol], the half-maximal inhibitory concentration (IC50) on recombinant E. coli FtsZ is 160 ± 30 µM; at Sa-FtsZ, 88 ± 11 µM. For the same compound, the MIC50 in [1] is greater than 290 µM; in test [3], 72 µM (≈ 24.6 µg/mL); in test [4], 22 µM (≈ 7.51 µg/mL); in [5] it was 18 µM (≈ 6.14 µg/mL); in test [6], 26 µM (≈ 8.87 µg/mL); in [8], 11 µM (≈ 3.75 µg/mL).
